Counter-ions that a name gives are not always drawn.

The values that follow come from US4261977A, “Streptomycetal antibiotic” (Beecham Group Limited, priority 1975, dated 1981).

In data set [1] the test system is gram-positive and gram-negative organisms. Briefly: Antibacterial activity determined by the microtiter method (general statement). The format is cell-based. The following applies: substantially pure di-sodium salt, certain gram-positive and gram-negative organisms.
The test system of data set [2] is β-lactamase producing strains of Staphylococcus aureus and Klebsiella aerogenes. Briefly: Synergy with β-lactam antibiotics (general statement). Type of data set: cell-based. The following applies: substantially pure di-sodium salt; with ampicillin, amoxycillin and the like; certain bacteria.
In data set [3] the test system is Klebsiella aerogenes. Briefly: Activity by conventional hole in plate method on agar. Type of data set: cell-based. The following applies: yellow solid after cellulose chromatography; arbitrary units. The procedure:
300 ml. of 10% Pluronic L81 in soya-bean oil was added to prevent foaming. The fermentation was harvested after 48 hours and clarified by centrifugation. The clarified brew was arbitarily assigned an activity of 340 units/ml when assayed by the conventional hole in plate method on agar seeded with Klebsiella aerogenes.

Data set [4] has as its system Proteus morganii I580. In words: Antibacterial activity, microtitre method (Table 2). Type of data set: cell-based. The following applies: heavy inoculum. The procedure: (§1) The antibacterial activity of the material produced as above was determined by the microtitre method using the overnight inoculum of the test organism at 0.2% concentration. The synergistic activity of the di-sodium salt of MM 17880 in combination with ampicillin and with cephaloridine against Klebsiella aerogenes and Staphylococcus aureus Russell are shown in Table 3.
(§2) Microtitre heavy inoculum

Data set [5] deals with Streptococcus faecalis I. The data set is described as above. Type of data set: cell-based. The following applies: heavy inoculum. The procedure: as §1, §2
Data set [6] deals with Streptococcus pyogenes CN10. Described as above. The format is cell-based. Conditions: heavy inoculum. The procedure:
as §1, §2

Data set [7] is described as follows: Stability of salts and unsalted acid. The format is physicochemical. The following applies: salts compared with unsalted acid; in solution.

For `CC(=O)NCCSC1=C(C(=O)O)N2C(=O)C(C(C)OS(=O)(=O)O)C2C1` (stereo not shown) [di-sodium salt of MM 17880], the antibacterial activity entry in data set [1] was “good level of antibacterial activity”. Also, in data set [2], the “synergy with β-lactam antibiotics” value is reported as “able to synergyse the anti-bacterial activity of β-lactam antibiotics”. Besides, the activity in data set [3] is recorded as 16,000 units/mg.
Regarding `CC(=O)NCCSC1=C(C(=O)O)N2C(=O)C(C(C)OS(=O)(=O)O)C2C1` (stereo not shown) [MM 17880], the minimal inhibitory concentration (MIC) is 1.6 µg/mL in data set [4], 6.2 µg/mL in data set [5] and less than 0.04 µg/mL in data set [6]. Further, the stability entry in data set [7] is recorded as “tends to decompose in solution”.

The MIC is the smallest concentration in the dilution series that meets the test's criterion for growth inhibition.
